From patent US12435108B2, “Teixobactin analogue and use thereof” (SUNSHINE LAKE PHARMA CO., LTD., priority 2019, dated 2025)
Like-named read-outs stand apart in the source and are kept apart here.

Experiments:
MSSA (ATCC29213) [1] = tested on: MSSA (ATCC29213)
Experimental: (§1) For the determination of the minimum inhibitory concentration (MIC), according to the CLSI standard, the minimum inhibitory concentration of 3 ATCC standard strains (2 strains of Staphylococcus aureus and 1 strain of Enterococcus faecium) was tested by two independent repeated experiments. Compounds were diluted two-fold in a 96-well plate from the highest detection concentration of 64 μg/mL. The test plate was placed in a common incubator and incubated at 35±2° C. for 20-24 hours. The growth of bacteria in the wells was observed and recorded. Inoculation method: 5-10 bacterial single colonies from the solid medium plate resuspended in 500 μL of 1.02×CAMHB, and then OD600 was adjusted to 0.1-0.15 with a spectrophotometer; then the bacteria were diluted 300-fold with 1.02×CAMHB to ˜2×10^5 CFU/ml (stepwise dilution, first 10-fold and then 30-fold), and the prepared bacterial inoculum was inoculated in 96-well plate within 15 minutes, the number of inoculated bacteria could be obtained by plate count. Colony count: the inoculated bacteria was diluted with liquid medium from 10^−1 to 10^−3 (such as 100 μL of bacterial inoculum+900 μL of 1.02×CAMHB); 100 μl of the above bacterial dilution was evenly spread on a TSA or TSA II plate, with 2 replicates per dilution. After the medium was absorbed by TSA or TSA II for 10 minutes, the plate was inverted and cultured at 35±2° C. for 24 hours in an incubator. Record of minimum inhibitory concentration and statistics of colony count: the minimum inhibitory concentration of each compound was recorded referring to the CLSI standard; the number of colonies of bacterial inoculum of different dilutions on the TSA or TSA II plate was counted and the amount of bacterial inoculation was calculated. Selection of strain types: MRSA (ATCC43300), MSSA (ATCC29213) and VRE (ATCC700221).

MRSA (SA86) = conditions: agar plate two-fold dilution, CLSI, 35 °C, 18 h
Experimental: (§2) For the determination of the minimum inhibitory concentration (MIC), according to the CLSI standard, a two-fold dilution method with a plate and a Denlay multi-point inoculator were used to conduct the drug sensitivity test. The test bacteria were enriched with MH broth or brain heart infusion. The drug solution was diluted two-fold with MH broth to prepare various required concentrations, and appropriate amounts were added to the plates respectively. After the MH agar medium was melted, it was quantitatively poured into the plates containing the drug solution and mixed uniformly. The final concentrations of the samples were: 128, 64, 32, 16, 8, 4, 2, 1, 0.5, 0.25, 0.125, 0.063, 0.031, 0.016, 0.008, 0.004 μg/mL, respectively. The test bacteria were inoculated (inoculation amount was 10^4 cfu/point) and then incubated at constant temperature of 35 □. The results were observed after 18 h. The minimum concentration of the drug contained in the sterile growth plate was the minimum inhibitory concentration (MIC). Selection of strain types: MRSA (SA86 and SA88), MSSA (ATCC29213), Enterococcus (ET6) and Streptococcus faecalis (SF).

MSSA (ATCC29213) [2] = conditions: Test Method 1: agar plate two-fold dilution, CLSI, 35 °C, 18 h
Experimental: as §2

Enterococcus (ET6) = conditions: agar plate two-fold dilution, CLSI, 35 °C, 18 h
Experimental: as §2

[3] = tested on: Streptococcus faecalis (SF); conditions: agar plate two-fold dilution, CLSI, 35 °C, 18 h
Experimental: as §2

[4] = Test Method 2: 96-well plate, CAMHB, 35±2 °C, 20-24 hours, highest concentration 64 μg/mL
[5] = 96-well plate, CAMHB, 35±2 °C, 20-24 hours, highest concentration 64 μg/mL

Experimental for MRSA (ATCC43300): as §1
Experimental for VRE (ATCC700221): as §1

Row | SMILES | In vitro antibacterial activity MIC, MSSA(ATCC29213) (MSSA (ATCC29213) [1]; ATCC29213) [µg/mL] | In vitro antibacterial activity MIC, VRE(ATCC700221) (VRE (ATCC700221); ATCC700221) [µg/mL] | In vitro antibacterial activity MIC, MRSA(ATCC43300) (MRSA (ATCC43300); ATCC43300) [µg/mL] | other results
1 | C=C[C@H]1C[C@]12NC(=O)[C@H](C)NC(=O)[C@H](NC(=O)[C@H](CO)NC(=O)[C@@H](NC(=O)[C@H](NC(=O)[C@@H](CCC(N)=O)NC(=O)[C@H](CO)NC(=O)[C@@H](NC(=O)[C@@H](Cc1ccc(-c3ccccc3)cc1)NC)[C@@H](C)CC)[C@@H](C)CC)[C@@H](C)CC)[C@H](C)OC(=O)[C@H]([C@@H](C)CC)NC2=O.O=C(O)C(F)(F)F [Example 20] | 4 | 4 | 4 | –
2 | CC[C@H](C)[C@H](NC(=O)[C@@H](Cc1ccc2ccccc2c1)NC)C(=O)N[C@@H](CO)C(=O)N[C@H](CCC(N)=O)C(=O)N[C@@H](C(=O)N[C@H](C(=O)N[C@@H](CO)C(=O)N[C@H]1C(=O)N[C@@H](C)C(=O)NC2(CCCCCC2)C(=O)N[C@@H]([C@@H](C)CC)C(=O)O[C@H]1C)[C@@H](C)CC)[C@@H](C)CC.O=C(O)C(F)(F)F [Example 24] | 4 | 4 | 4 | –
3 | CC[C@H](C)[C@H](NC(=O)[C@@H](Cc1ccccc1)NC)C(=O)N[C@@H](CO)C(=O)N[C@H](CCC(N)=O)C(=O)N[C@@H](C(=O)N[C@H](C(=O)N[C@@H](CO)C(=O)N[C@H]1C(=O)N[C@@H](C)C(=O)NC(C)(C)C(=O)N[C@@H]([C@@H](C)CC)C(=O)O[C@H]1C)[C@@H](C)CC)[C@@H](C)CC.O=C(O)C(F)(F)F [Example 26] | – | – | – | In vitro antibacterial activity MIC, MSSA(ATCC29213) (MSSA (ATCC29213) [1]; [4]): 64 µg/mL; In vitro antibacterial activity MIC, VRE(ATCC700221) (VRE (ATCC700221); [5]): >64 µg/mL; In vitro antibacterial activity MIC, MRSA(ATCC43300) (MRSA (ATCC43300); [5]): 32 µg/mL
4 | CC[C@H](C)[C@H](NC(=O)[C@@H](Cc1csc2ccccc12)NC)C(=O)N[C@@H](CO)C(=O)N[C@H](CCC(N)=O)C(=O)N[C@@H](C(=O)N[C@H](C(=O)N[C@@H](CO)C(=O)N[C@H]1C(=O)N[C@@H](C)C(=O)NC2(CC2)C(=O)N[C@@H]([C@@H](C)CC)C(=O)O[C@H]1C)[C@@H](C)CC)[C@@H](C)CC.O=C(O)C(F)(F)F [Example 15] | 4 | 8 | 4 | –
5 | CC[C@H](C)[C@H](NC(=O)[C@@H](Cc1csc2ccccc12)NC)C(=O)N[C@@H](CO)C(=O)N[C@H](CCC(N)=O)C(=O)N[C@@H](C(=O)N[C@H](C(=O)N[C@@H](CO)C(=O)N[C@H]1C(=O)N[C@@H](C)C(=O)N[C@@]2(C[C@H]2CC(F)F)C(=O)N[C@@H]([C@@H](C)CC)C(=O)O[C@H]1C)[C@@H](C)CC)[C@@H](C)CC.O=C(O)C(F)(F)F [Example 14] | 4 | 8 | 4 | –
6 | CC[C@H](C)[C@H](NC(=O)[C@@H](Cc1ccc(-c2ccc(Oc3ccccc3)cc2)cc1)NC)C(=O)N[C@@H](CO)C(=O)N[C@H](CCC(N)=O)C(=O)N[C@@H](C(=O)N[C@H](C(=O)N[C@@H](CO)C(=O)N[C@H]1C(=O)N[C@@H](C)C(=O)NC2(CC2)C(=O)N[C@@H]([C@@H](C)CC)C(=O)O[C@H]1C)[C@@H](C)CC)[C@@H](C)CC.O=C(O)C(F)(F)F [Example 25] | 4 | 4 | 4 | –
7 | CC[C@H](C)[C@H](NC(=O)[C@@H](Cc1ccccc1)NC)C(=O)N[C@@H](CO)C(=O)N[C@H](CCC(N)=O)C(=O)N[C@@H](C(=O)N[C@H](C(=O)N[C@@H](CO)C(=O)N[C@H]1C(=O)N[C@@H](C)C(=O)NC2(CCC2)C(=O)N[C@@H]([C@@H](C)CC)C(=O)O[C@H]1C)[C@@H](C)CC)[C@@H](C)CC.O=C(O)C(F)(F)F [Example 6] | – | – | – | In vitro antibacterial activity MIC, MRSA SA86 (MRSA (SA86)): 8 µg/mL; In vitro antibacterial activity MIC, MSSA(ATCC29213) (MSSA (ATCC29213) [2]): 8 µg/mL
8 | CC[C@H](C)[C@H](NC(=O)[C@@H](Cc1ccc(-c2ccccc2)cc1)NC)C(=O)N[C@@H](CO)C(=O)N[C@H](CCC(N)=O)C(=O)N[C@@H](C(=O)N[C@H](C(=O)N[C@@H](CO)C(=O)N[C@H]1C(=O)N[C@@H](C)C(=O)NC2(CC2)C(=O)N[C@@H]([C@@H](C)CC)C(=O)O[C@H]1C)[C@@H](C)CC)[C@@H](C)CC.O=C(O)C(F)(F)F [Example 18] | 2 | 2 | 2 | –
9 | CC[C@H](C)[C@H](NC(=O)[C@@H](Cc1csc2ccccc12)NC)C(=O)N[C@@H](CO)C(=O)N[C@H](CCC(N)=O)C(=O)N[C@@H](C(=O)N[C@H](C(=O)N[C@@H](CO)C(=O)N[C@H]1C(=O)N[C@@H](C)C(=O)NC2(CCCCCC2)C(=O)N[C@@H]([C@@H](C)CC)C(=O)O[C@H]1C)[C@@H](C)CC)[C@@H](C)CC.O=C(O)C(F)(F)F [Example 17] | 4 | 8 | 4 | –
10 | C=C[C@H]1C[C@]12NC(=O)[C@H](C)NC(=O)[C@H](NC(=O)[C@H](CO)NC(=O)[C@@H](NC(=O)[C@H](NC(=O)[C@@H](CCC(N)=O)NC(=O)[C@H](CO)NC(=O)[C@@H](NC(=O)[C@@H](Cc1csc3ccccc13)NC)[C@@H](C)CC)[C@@H](C)CC)[C@@H](C)CC)[C@H](C)OC(=O)[C@H]([C@@H](C)CC)NC2=O.O=C(O)C(F)(F)F [Example 16] | 4 | 4 | 4 | –
11 | CC[C@H](C)[C@H](NC(=O)[C@@H](Cc1ccccc1)NC)C(=O)N[C@@H](CO)C(=O)N[C@H](CCC(N)=O)C(=O)N[C@@H](C(=O)N[C@H](C(=O)N[C@@H](CO)C(=O)N[C@H]1C(=O)N[C@@H](C)C(=O)NC2(CCCCCC2)C(=O)N[C@@H]([C@@H](C)CC)C(=O)O[C@H]1C)[C@@H](C)CC)[C@@H](C)CC.O=C(O)C(F)(F)F [Example 9] | – | – | – | In vitro antibacterial activity MIC, Enterococcus (ET6) (Enterococcus (ET6)): 4 µg/mL; In vitro antibacterial activity MIC, Streptococcus faecalis(SF) [3]: 8 µg/mL; In vitro antibacterial activity MIC, MRSA SA86 (MRSA (SA86)): 4 µg/mL; In vitro antibacterial activity MIC, MSSA(ATCC29213) (MSSA (ATCC29213) [2]): 4 µg/mL
12 | C=C[C@H]1C[C@]12NC(=O)[C@H](C)NC(=O)[C@H](NC(=O)[C@H](CO)NC(=O)[C@@H](NC(=O)[C@H](NC(=O)[C@@H](CCC(N)=O)NC(=O)[C@H](CO)NC(=O)[C@@H](NC(=O)[C@@H](Cc1ccc3ccccc3c1)NC)[C@@H](C)CC)[C@@H](C)CC)[C@@H](C)CC)[C@H](C)OC(=O)[C@H]([C@@H](C)CC)NC2=O.O=C(O)C(F)(F)F [Example 22] | 2 | 4 | 2 | –
13 | CC[C@H](C)[C@H](NC(=O)[C@@H](Cc1ccccc1)NC)C(=O)N[C@@H](CO)C(=O)N[C@H](CCC(N)=O)C(=O)N[C@@H](C(=O)N[C@H](C(=O)N[C@@H](CO)C(=O)N[C@H]1C(=O)N[C@@H](C)C(=O)NC2(CC2)C(=O)N[C@@H]([C@@H](C)CC)C(=O)O[C@H]1C)[C@@H](C)CC)[C@@H](C)CC.O=C(O)C(F)(F)F [Example 5] | – | – | – | In vitro antibacterial activity MIC, Enterococcus (ET6) (Enterococcus (ET6)): 8 µg/mL; In vitro antibacterial activity MIC, Streptococcus faecalis(SF) [3]: 8 µg/mL; In vitro antibacterial activity MIC, MRSA SA86 (MRSA (SA86)): 4 µg/mL; In vitro antibacterial activity MIC, MSSA(ATCC29213) (MSSA (ATCC29213) [2]): 4 µg/mL
14 | CC[C@H](C)[C@H](NC(=O)[C@@H](Cc1ccccc1)NC)C(=O)N[C@@H](CO)C(=O)N[C@H](CCC(N)=O)C(=O)N[C@@H](C(=O)N[C@H](C(=O)N[C@@H](CO)C(=O)N[C@H]1C(=O)N[C@@H](C)C(=O)N[C@@]2(C[C@H]2CCO)C(=O)N[C@@H]([C@@H](C)CC)C(=O)O[C@H]1C)[C@@H](C)CC)[C@@H](C)CC.O=C(O)C(F)(F)F [Example 12] | – | – | – | In vitro antibacterial activity MIC, MSSA(ATCC29213) (MSSA (ATCC29213) [1]; [4]): 8 µg/mL; In vitro antibacterial activity MIC, MRSA(ATCC43300) (MRSA (ATCC43300); [5]): 8 µg/mL
15 | CC[C@H](C)[C@H](NC(=O)[C@@H](Cc1ccc(-c2ccc(-c3ccccc3)cc2)cc1)NC)C(=O)N[C@@H](CO)C(=O)N[C@H](CCC(N)=O)C(=O)N[C@@H](C(=O)N[C@H](C(=O)N[C@@H](CO)C(=O)N[C@H]1C(=O)N[C@@H](C)C(=O)NC2(CC2)C(=O)N[C@@H]([C@@H](C)CC)C(=O)O[C@H]1C)[C@@H](C)CC)[C@@H](C)CC.O=C(O)C(F)(F)F [Example 21] | 8 | 8 | 8 | –
16 | CC[C@H](C)[C@H](NC(=O)[C@@H](Cc1ccc2ccccc2c1)NC)C(=O)N[C@@H](CO)C(=O)N[C@H](CCC(N)=O)C(=O)N[C@@H](C(=O)N[C@H](C(=O)N[C@@H](CO)C(=O)N[C@H]1C(=O)N[C@@H](C)C(=O)NC2(CC2)C(=O)N[C@@H]([C@@H](C)CC)C(=O)O[C@H]1C)[C@@H](C)CC)[C@@H](C)CC.O=C(O)C(F)(F)F [Example 23] | 4 | 4 | 2 | –
17 | CC[C@H](C)[C@H](NC(=O)[C@@H](Cc1ccc(-c2ccccc2)cc1)NC)C(=O)N[C@@H](CO)C(=O)N[C@H](CCC(N)=O)C(=O)N[C@@H](C(=O)N[C@H](C(=O)N[C@@H](CO)C(=O)N[C@H]1C(=O)N[C@@H](C)C(=O)NC2(CCCCCC2)C(=O)N[C@@H]([C@@H](C)CC)C(=O)O[C@H]1C)[C@@H](C)CC)[C@@H](C)CC.O=C(O)C(F)(F)F [Example 19] | 4 | 4 | 4 | –
